From ChEMBL document CHEMBL4431377, “Design, Synthesis, and Characterization of Sulfamide and Sulfamate Nucleotidomimetic Inhibitors of hHint1” (ACS Med Chem Lett, 2016)

Tests used:
[1] = Aqueous solubility of the compound in aqueous buffer at 5 mM; type: physicochemical; settings: 5000 µM
[2] = target: T1, Adenosine 5'-monophosphoramidase HINT1 (Homo sapiens, UniProt P49773); test: Binding affinity to His-tagged human full length HINT1 expressed in Rosetta2 pLysS cells by isothermal titration calorimetric assay
T1 sequence (P49773 whole entry): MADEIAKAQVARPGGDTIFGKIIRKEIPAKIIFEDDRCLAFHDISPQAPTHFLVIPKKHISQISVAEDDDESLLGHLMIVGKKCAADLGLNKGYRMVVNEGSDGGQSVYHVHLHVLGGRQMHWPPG

[3] = target: T1, Adenosine 5'-monophosphoramidase HINT1; test: Binding affinity to recombinant human HINT1 by isothermal titration calorimetric assay
[4] = target: T1, Adenosine 5'-monophosphoramidase HINT1; test: Inhibition of His-tagged human full length HINT1 expressed in Rosetta2 pLysS cells using TrpAMP as substrate measured for 2 to 30 mins by fluorescence assay
[5] = Aqueous solubility of the compound in aqueous buffer at 20 mM; type: physicochemical; settings: 20000 µM
[6] = Stability of the compound in PBS buffer assessed as cyclonucleoside formation at 50 to 100 uM by HPLC analysis; type: physicochemical

SMILES	solubility [1]	Kd [2] [nM]	IC50 [4] [nM]	inhibition [4]	further results
CCN(CC)CC.Nc1nc2c(ncn2[C@@H]2O[C@H](CNS(=O)(=O)NC(=O)CCc3c[nH]c4ccccc34)[C@@H](O)[C@H]2O)c(=O)[nH]1	Soluble	920			
Nc1nc2c(ncn2[C@@H]2O[C@H](COC(=O)NCCc3c[nH]c4ccccc34)[C@@H](O)[C@H]2O)c(=O)[nH]1			25500	Dose-dependent effect	Kd [3]: 3650 nM
Nc1ncnc2c1ncn2[C@@H]1O[C@H](CNS(=O)(=O)NC(=O)CCCC[C@@H]2SC[C@@H]3NC(=O)N[C@@H]32)[C@@H](O)[C@H]1O		320	1000	Dose-dependent effect	
CCCC(=O)NS(=O)(=O)OC[C@H]1O[C@@H](n2cnc3c(=O)[nH]c(N)nc32)[C@H](O)[C@@H]1O.CCN(CC)CC	Soluble	2900			
CCN(CC)CC.Nc1nc2c(ncn2[C@@H]2O[C@H](COS(=O)(=O)NC(=O)CCc3c[nH]c4ccccc34)[C@@H](O)[C@H]2O)c(=O)[nH]1	Soluble	810			
CCN(CC)CC.O=C(CCc1c[nH]c2ccccc12)NS(=O)(=O)OC[C@H]1O[C@@H](n2cnc3c2ncn2ccnc32)[C@H](O)[C@@H]1O					solubility [5]: Soluble; Stability [6]: Stable
